# According to patent US6610282B1, “Polymeric controlled release compositions” (Rohm and Haas Company, priority 1998, dated 2003):
# Assay: Release of 4,5-dichloro-2-octyl-3-isothiazolone from dry marine paint film in synthetic sea water
# Type: physicochemical
# Conditions: 14 Days in synthetic sea water; marine paint film with 5%wt active on glass slides, dried 6 days; HPLC of film extract
# Procedure: The compositions of Example 1 were evaluated for the control of the release of biologically active molecules in a marine paint.
# A blank paint, that is one that contained no biologically active molecules, was dosed with Samples 2-5. The amount of the samples added was such that the total amount of 4,5-dichloro-2-octyl-3-isothiazolone in the paint was 5%wt, based on the total weight of the dry paint film. A control paint was prepared by adding 4,5-dichloro-2-octyl-3-isothiazolone alone. Glass slides were painted with the treated paints as well as the control paint and allowed to dry in a hood for 6 days. The slides were then submerged in a tank of synthetic sea water. The slides were removed after 14 days and the paint film extracted. The extracts were analyzed by HPLC to determine the amount of 4,5-dichloro-2-octyl-3-isothiazolone remaining.
smiles,measurement,value
"CCCCCCCCn1sc(Cl)c(Cl)c1=O [Control, 4,5-dichloro-2-octyl-3-isothiazolone]","% of 4,5-Dichloro-2-n-octyl-3-isothiazolone Released",29.0%
